According to ChEMBL document CHEMBL1125161, “O'-(epoxyalkyl)tyrosines and (epoxyalkyl)phenylalanine as irreversible inactivators of serine proteases: synthesis and inhibition mechanism” (J Med Chem, 1990):

Legend:
Chymotrypsinogen A = Chymotrypsinogen A (Bos taurus, UniProt P00766); assay: (§1) Inhibitory activity against alpha-chymotrypsin
[1] = target: Chymotrypsinogen A (Bos taurus) (UniProt P00766); assay: (§2) Ratio of the kinetic constants (ki X 10e3) versus Ki was reported
[2] = target: Chymotrypsinogen A (Bos taurus) (UniProt P00766); assay: (§3) Ratio of the kinetic constants kH versus ki was reported
[3] = target: Chymotrypsinogen A (Bos taurus) (UniProt P00766); assay: (§4) The ratio (ki + kH)/ki (turnover ratio) was determined using ultimate activity assay
[4] = target: Chymotrypsinogen A (Bos taurus) (UniProt P00766); assay: as §1
Subtilisin (Bacillus) [5] = assay: Inhibitory activity against subtilisin
Subtilisin (Bacillus) [6] = assay: Ratio of the kinetic constants kH versus ki was reported
Subtilisin (Bacillus) [7] = assay: Ratio of the kinetic constants (ki X 10e3) versus Ki was reported
Subtilisin (Bacillus) [8] = assay: The ratio (ki + kH)/ki (turnover ratio) was determined using ultimate activity assay
[9] = (§5) Inhibitory activity against subtilisin
[10] = as §5; remark: listed apart in the source
[11] = as §5; remark: listed apart in the source
[12] = as §2
[13] = as §3
[14] = as §4

SMILES | Ki (Chymotrypsinogen A) [µM] | Ratio [1] [M⁻¹ min⁻¹] | Ratio [2] | Ratio [3] | k obs [4] [s⁻¹] | kH [4] [s⁻¹] | also measured
CCOC(=O)[C@H](Cc1ccc(OCCC2CO2)cc1)NC(=O)c1ccccc1 (some centres not stated) | 57 | 14600 | 28 | 13 | 0.00027 | 0.38 | –
CCOC(=O)[C@H](Cc1ccc(OCC2CO2)cc1)NC(C)=O (some centres not stated) | – | – | – | – | – | – | k obs (Subtilisin (Bacillus) [5]): 0.0011 s⁻¹; kH (Subtilisin (Bacillus) [5]): 13.8 s⁻¹; Ratio (Subtilisin (Bacillus) [6]): 3900; Ratio (Subtilisin (Bacillus) [7]): 1000 M⁻¹ min⁻¹; Ratio (Subtilisin (Bacillus) [8]): 2000
CCOC(=O)[C@H](Cc1ccc(OCC2CO2)cc1)NC(=O)c1ccccc1 (some centres not stated) | 380 | 260 | 300 | 68 | 0.00055 | 5.2 | –
CCOC(=O)[C@H](Cc1ccc(OCCCC2CO2)cc1)NC(=O)c1ccccc1 (some centres not stated) | 35 | 2400 | 109 | 26 | 0.00017 | 0.15 | –
O=C(N[C@@H](Cc1ccc(OCC2CO2)cc1)C(=O)Nc1ccc([N+](=O)[O-])cc1)c1ccccc1 (some centres not stated) | 66 | 3000 | 184 | 80 | 0.00037 | 0.61 | –
CCOC(=O)[C@H](Cc1ccc(OCCC2CO2)cc1)NC(C)=O (some centres not stated) | – | – | – | – | – | – | Ki [9]: 0.0092 s⁻¹; k obs [10]: 0.0014 s⁻¹; kH [10]: 11.8 s⁻¹; Ki [11]: 140 µM; Ratio [12]: 3900 M⁻¹ min⁻¹; Ratio [13]: 1300; Ratio [14]: 500
O=C(N[C@@H](Cc1ccc(OCCC2CO2)cc1)C(=O)Nc1ccc([N+](=O)[O-])cc1)c1ccccc1 (some centres not stated) | 59 | 14000 | 60 | 20 | 0.00056 | 0.83 | –
